One assay has as its target T1, TYK2-JH2 (Homo sapiens, UniProt P29597).
T1 construct: TYK JH2 enzyme mix (ChemPartner: CP20210818A-BV); purchased ChemPartner CP20210818A-BV
The assay can be described thus: TYK2-JH2 HTRF binding assay (ligand efficiency). To be noted: calculated from binding-assay IC50 (Equation 1). The method in brief:
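HTRF competition binding: 0.5 nM His-tagged TYK2 JH2 preincubated 10 min at room temperature with compound (final 0.1 to 0.000005 μM), then 35 nM tracer and anti-6HIS Tb cryptate added for 60 min. Buffer 20 mM HEPES pH 7.5, 10 mM MgCl2, 0.01% Triton X-100, 1 mM DTT; TR-FRET Ex340/Em495/520. Ligand efficiency derived from binding IC50.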

In assay [1] the test system is anti-CD40-induced inflammatory bowel disease (IBD). The assay can be described thus: Anti-CD40-induced mouse model of inflammatory bowel disease (IBD). It is filed as in vivo, RAGN12 mice. Conditions: for colon histopathology scores / colon weight-to-length ratio: 7-day anti-CD40 IBD model. The method, then:
This study was conducted in accordance with the Inotiv Boulder test facility standard operating procedures (SOPs), the World Health Organization Quality Practices in Basic Biomedical Research guidelines, and in compliance with all state and federal regulations, including USDA Animal Welfare Act 9 CFR Parts 1-3. Federal Register 39129, Jul. 22, 1993. This study was conducted in accordance with The Guide for the Care & Use of Laboratory Animals (8th Edition) and therefore in accordance with all Inotiv Boulder IACUC approved policies.
Prior to the start of the study, 6-7 week old, RAGN12 mice (Taconics) were acclimated for approximately 4 days. On study day −1, mice were weighed and randomized into treatment groups based on body weight. On study day 0, 200 μg of anti-CD40 monoclonal antibody (BioXcell) was administered intraperitoneally to induce disease. Test articles were dosed orally BID (the exception was the known TYK2 inhibitor at 3 mpk, which was dosed QD, with vehicle administered as the second daily dose). Bodyweight was measured daily on study days 1-6.
On day 7, the study was terminated; mice were anesthetized with Isoflurane and bled to exsanguination followed by cervical dislocation. The entire colon was removed, measured, and weighed. The plasma (for PK) and colon (for histology and cytokine measurements) samples were collected. Histopathology samples were evaluated for edema, inflammation (extent of macrophage, lymphocyte and polymorphonuclear (PMN) cell infiltration), gland loss, erosion, and hyperplasia.
Overall efficacy of test articles is based on a ratio of colon weight to length, and colon histopathology (FIGS. 6A and 6B). Additional readouts of the model support activity of an exemplary compound in IBD (FIG. 6C-6I).

Another assay has as its system GM-CSF induced pSTAT5. The assay can be described thus: GM-CSF induced pSTAT5 assay in CellSensor irf1-bla TF-1 cells. Format: cell-based. To be noted: Homo sapiens, GM-CSF 1 ng/mL, read-out: Cellular selectivity (GM-CSF induced pSTAT5). As to the method:
The CellSensor irfl-bla TF-1 cell line (LifeTechnologies, K1657) was cultured in RPMI 1640 Medium (Invitrogen 72400-047), 10% Fetal Bovine Serum (Invitrogen, 26400044), 1 mM Sodium pyruvate (Life Technologies, 11360039), 1% MEM NEAA (Life Technologies, 11140-035), 2 ng/ml of human recombinant GM-CSF (Fisher, PHC2015), 1% Penicillin/Streptomycin (Life Technologies, 15140-122) and 5 µg/ml of Blasticidin (ThermoFisher, A1113903).
The cell line was seeded in a T75 flask at 13×10^6 cells/50 mL in starvation medium (Opti-MEM™ I Reduced Serum Medium, no phenol red (Life Technologies, 11058-021), 1 mM Na pyruvate (Life Technologies, 11360039), 1% MEM NEAA (Life Technologies, 11140-035), and 1% Penicillin/Streptomycin (Life Technologies, 15140-122)) for 16 hours at 37° C. under 5% CO2 the day before the assay.
For the assay, CellSensor irfl-bla TF-1 cells were seeded at 30 000 cells/32 μL (starvation medium)/well in a 384-well plate.
Compounds were added on the cells in 4 μL (starvation medium)/well at 10× the final concentration. They were incubated for 30 minutes at 37° C.
Human recombinant carrier-free GM-CSF (ThermoFisher, ref PHC2015) was added to the wells in 4 μL (starvation medium)/well at 10×. The final concentration was 1 ng/mL. Control wells without GM-CSF treatment were added. Plates were incubated for 5 hours at 37° C.
6× LiveBlazer-FRET substrate (Invitrogen, K1085) was added to the wells at 8 μL/well. The substrate was prepared shortly before use by mixing 6 μL of solution A and 60 μL of solution B to 934 μL of solution C. Plates were incubated for 2.5 hours at room temperature in the dark. The plates were read on an Envision (Perkin Elmer) with an excitation at a wavelength of 409 nm and two wavelengths for the emission 520 nm and 450 nm. The ratio between the […] emission was used to calculate the IC50s.
The IC50 for the inhibition of pSTAT5 was calculated with the XLfit software using the 4 Parameter Logistic Model or Sigmoidal Dose-Response Model (model 205).

T1 sequence (P29597 589-875 limits assumed): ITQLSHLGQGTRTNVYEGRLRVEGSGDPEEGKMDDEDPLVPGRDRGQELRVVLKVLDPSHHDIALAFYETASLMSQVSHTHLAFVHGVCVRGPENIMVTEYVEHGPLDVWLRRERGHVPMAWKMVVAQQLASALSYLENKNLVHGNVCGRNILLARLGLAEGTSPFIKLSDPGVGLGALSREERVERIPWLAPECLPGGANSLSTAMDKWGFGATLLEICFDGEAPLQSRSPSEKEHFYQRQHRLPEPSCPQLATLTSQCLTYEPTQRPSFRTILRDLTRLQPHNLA

With `C[C@@H](c1ccc(Nc2cc(Nc3ncccc3S(C)(=O)=O)ncn2)nc1)N1CC2(COC2)C1` [Compound 1, (S)—N^4-(5-(1-(2-oxa-6-azaspiro[3.3]heptan-6-yl)ethyl)pyridin-2-yl)-N^6-(3-(methylsulfonyl)pyridin-2-yl)pyrimidine-4,6-diamine], at TYK2-JH2, the “Ligand Efficiency” value is recorded as “††† (†††: >0.39)”. In addition, in assay [1], the colon histopathology scores entry is “inhibition” and the colon weight-to-length ratio entry was “inhibition”. Moreover, in assay [1] (anti-CD40 IBD model), the “colon weight:length, efficacious dose” value was found to be 200 mpk. Further, the IC50 with GM-CSF induced pSTAT5 fell in the range of 4 to 10 µM.

Take `C[C@@H](c1ccc(Nc2cc(Nc3ncc(F)cc3S(C)(=O)=O)ncn2)nc1)N1CC2(COC2)C1` [Compound 2, (S)—N^4-(5-(1-(2-oxa-6-azaspiro[3.3]heptan-6-yl)ethyl)pyridin-2-yl)-N^6-(5-fluoro-3-(methylsulfonyl)pyridin-2-yl)pyrimidine-4,6-diamine]: at TYK2-JH2, the “Ligand Efficiency” value is recorded as “††† (†††: >0.39)”. In assay [1], the colon histopathology scores entry is on record as “inhibition” and the colon weight-to-length ratio entry is given as “inhibition”. Also, the IC50 in the assay on GM-CSF induced pSTAT5 was above 10 µM.

The record behind these values is patent US20260048051A1, “TREATMENT OF INFLAMMATORY BOWEL DISEASE” (Atomwise Inc., priority 2024, published 2026).
